Values after ≈ are worked out from the molar mass of the structure shown.

This note sets out measurements from ChEMBL document CHEMBL1151169, “New beta-caryophyllene-derived terpenoids from the soft coral Sinularia nanolobata” (2004).

Holding throughout (type): functional
The nature of assay [1]: Cytotoxicity against human Medulloblastoma cells by MTT assay. Conditions: Medulloblastoma cell, read-out: ED50 (the source's name).
The nature of assay [2]: Cytotoxicity against human HEPA 59T/VGH cells by MTT assay. The following applies: read-out: ED50 (the source's name). Background: Formazan colour is commonly taken as a measure of viable cells.
The test system of a further assay is HeLa. Description: Cytotoxicity against human HeLa cells by MTT assay. Conditions: read-out: ED50 (the source's name).
Another assay relates to KB. Description: Cytotoxicity against human KB cells by MTT assay. The following applies: read-out: ED50 (the source's name).
Another assay relates to NCI-H661. Description: Cytotoxicity against human NCI-H661 cells by MTT assay. Conditions: read-out: ED50 (the source's name).
The test system of a further assay is DLD-1. Description: Cytotoxicity against human DLD1 cells by MTT assay. The following applies: read-out: ED50 (the source's name).

Consider `COc1cccc2c1C(=O)c1c(O)c3c(c(O)c1C2=O)C[C@@](O)(C(=O)CO)C[C@@H]3O[C@H]1C[C@H](N)[C@H](O)[C@H](C)O1` [DOXORUBICIN], for which the EC50 was found to be 0.41 µg/mL (≈ 0.754 µM) in assay [1]; 0.47 µg/mL (≈ 0.865 µM) in assay [2]; 0.22 µg/mL (≈ 0.405 µM) in the assay with HeLa; 0.25 µg/mL (≈ 0.46 µM) in the assay on KB; 0.29 µg/mL (≈ 0.534 µM) in the assay on NCI-H661; 0.57 µg/mL (≈ 1.05 µM) in the assay on DLD-1.
